Read-outs that look alike come from different tables or passages of the source.
How the values were obtained:
HeLa cells = assay: Compound screen by flow cytometry: HeLa cell count as surrogate readout of cell viability (z-scoreHeLa); type: cell-based, human
Outline: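 HeLa cells were infected with GFP-MRSA (mean MOI 6.8 ± 4.6) for 1 h, and extracellular bacteria were killed with 30 µg/ml gentamicin. Cells were then incubated overnight with kinase inhibitors in 5 µg/ml gentamicin, in triplicate against DMSO controls. Flow-cytometric cell count served as a viability surrogate, expressed as a plate z-score.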

intracellular MRSA = type: cell-based, Staphylococcus aureus; settings: for %GFP+ rep 1 / z-scoreMRSA+ rep 1: replicate 1; for %GFP+ rep 2 / z-scoreMRSA+ rep 2: replicate 2; for %GFP+ rep 3 / z-scoreMRSA+ rep 3: replicate 3; for z-scoreMRSA+ mean: mean of 3 replicates
Outline: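 HeLa, MRSA-GFP at MOI ~6.8, 1 h infection; gentamicin 30 µg/ml for 15 min; inhibitor plus gentamicin 5 µg/ml overnight, 37°C/5% CO2; triplicate plates; FACS %GFP+ and cell count; hit = z ≤ -2 MRSA+, z ≥ -3 count.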

[1] = PKIS compound screen raw data, HeLa cell count, replicate 1
[2] = PKIS compound screen raw data, HeLa cell count, replicate 2
[3] = PKIS compound screen raw data, HeLa cell count, replicate 3
[4] = PKIS compound screen, HeLa cell count, mean of 3 replicates
[5] = PKIS compound screen, HeLa cell count, replicate 1
[6] = PKIS compound screen, HeLa cell count, replicate 2
[7] = PKIS compound screen, HeLa cell count, replicate 3
[8] = PKIS compound screen, Yes/No call
[9] = PKIS compound screen, Yes/No call on z-scoreHeLa
[10] = PKIS compounds raw data, replicate 1, HeLa cell count
[11] = PKIS compounds raw data, replicate 2, HeLa cell count
[12] = PKIS compounds raw data, replicate 3, HeLa cell count
[13] = PKIS compound screen raw data, MRSA-infected HeLa cells
[14] = PKIS compound screen, MRSA-infected HeLa cells
[15] = PKIS compound screen, Yes/No call (effect without cell death)
[16] = PKIS compound screen, Yes/No call on z-scoreMRSA+
[17] = PKIS compounds raw data, MRSA-infected HeLa cells
[18] = compound screen, HeLa cell count, mean of 3 replicates
[19] = compound screen, HeLa cell count, replicate 1
[20] = compound screen, HeLa cell count, replicate 2
[21] = compound screen, HeLa cell count, replicate 3
[22] = Yes/No: effect without cell death
[23] = compound screen, MRSA-infected HeLa cells

COc1ccc(Nc2nccc(N3CCC(NC(=O)Nc4cccc(OC)c4)C3)n2)cc1 (stereo not shown) [GSK1379742A]
cell count rep 1 (HeLa cells; [1]): 25651 | cell count rep 2 (HeLa cells; [2]): 33132 | cell count rep 3 (HeLa cells; [3]): 39377 | z-scoreHeLa mean (HeLa cells; [4]): 0.12 | z-scoreHeLa rep 1 (HeLa cells; [5]): 0.84 | z-scoreHeLa rep 2 (HeLa cells; [6]): -0.31 | z-scoreHeLa rep 3 (HeLa cells; [7]): -0.18 | cell death (HeLa cells; [8]): No | cell death (HeLa cells; [9]): No | z-scoreHeLa mean (HeLa cells; PKIS compound screen, mean of 3 replicates): 1.53 | z-scoreHeLa rep 1 (HeLa cells; PKIS compound screen, replicate 1): 1.56 | z-scoreHeLa rep 2 (HeLa cells; PKIS compound screen, replicate 2): 0.68 | z-scoreHeLa rep 3 (HeLa cells; PKIS compound screen, replicate 3): 2.36 | cell count rep 1 (HeLa cells; [10]): 8641 | cell count rep 2 (HeLa cells; [11]): 7027 | cell count rep 3 (HeLa cells; [12]): 9326 | %GFP+ rep 1 (intracellular MRSA; [13]): 17.9% | %GFP+ rep 2 (intracellular MRSA; [13]): 19.2% | %GFP+ rep 3 (intracellular MRSA; [13]): 19.1% | z-scoreMRSA+ mean (intracellular MRSA; [14]): 0.00235 | z-scoreMRSA+ rep 1 (intracellular MRSA; [14]): 0.0133 | z-scoreMRSA+ rep 2 (intracellular MRSA; [14]): 0.20 | z-scoreMRSA+ rep 3 (intracellular MRSA; [14]): -0.21 | effect (intracellular MRSA; [8]): No | hit (intracellular MRSA; [15]): No | effect (intracellular MRSA; [16]): No | z-scoreMRSA+ mean (intracellular MRSA; PKIS compound screen): 0.33 | z-scoreMRSA+ rep 1 (intracellular MRSA; PKIS compound screen): -0.05 | z-scoreMRSA+ rep 2 (intracellular MRSA; PKIS compound screen): 0.88 | z-scoreMRSA+ rep 3 (intracellular MRSA; PKIS compound screen): 0.15 | %GFP+ rep 1 (intracellular MRSA; [17]): 26.8% | %GFP+ rep 2 (intracellular MRSA; [17]): 30.6% | %GFP+ rep 3 (intracellular MRSA; [17]): 28.1%

CN(C)C(=O)O[C@@H]1CN[C@@H](C#Cc2cc3ncnc(Nc4ccc(OCc5cccc(F)c5)c(Cl)c4)c3s2)C1 [GSK238063A]
cell count rep 1 (HeLa cells; [10]): 3194 | cell count rep 2 (HeLa cells; [11]): 3723 | cell count rep 3 (HeLa cells; [12]): 4546 | cell death (HeLa cells; Yes/No call from z-scoreHeLa): No | z-scoreHeLa mean (HeLa cells; [18]): -1.00 | z-scoreHeLa rep 1 (HeLa cells; [19]): -1.43 | z-scoreHeLa rep 2 (HeLa cells; [20]): -0.41 | z-scoreHeLa rep 3 (HeLa cells; [21]): -1.16 | %GFP+ rep 1 (intracellular MRSA; [17]): 8.6% | %GFP+ rep 2 (intracellular MRSA; [17]): 9.6% | %GFP+ rep 3 (intracellular MRSA; [17]): 9.8% | effect (intracellular MRSA; Yes/No call from z-scoreMRSA+): No | hit (intracellular MRSA; [22]): No | z-scoreMRSA+ mean (intracellular MRSA; [23]): -1.52 | z-scoreMRSA+ rep 1 (intracellular MRSA; [23]): -1.46 | z-scoreMRSA+ rep 2 (intracellular MRSA; [23]): -1.30 | z-scoreMRSA+ rep 3 (intracellular MRSA; [23]): -1.81

COc1cc2c(Nc3ccc(NC(=O)c4ccccc4)cc3)ncnc2cc1OCCCN1CCOCC1 [GSK301329A]
cell death (HeLa cells): No | cell count rep 1 (HeLa cells; human): 4010 | cell count rep 2 (HeLa cells; human): 4052 | cell count rep 3 (HeLa cells; human): 5236 | z-scoreHeLa mean (HeLa cells; human): -0.15 | z-scoreHeLa rep 1 (HeLa cells; human): -0.25 | z-scoreHeLa rep 2 (HeLa cells; human): -0.19 | z-scoreHeLa rep 3 (HeLa cells; human): -0.00157 | %GFP+ rep 1 (intracellular MRSA; [13]): 25.2% | %GFP+ rep 2 (intracellular MRSA; [13]): 24.6% | %GFP+ rep 3 (intracellular MRSA; [13]): 21.9% | effect (intracellular MRSA; Yes/No call from z-scoreMRSA+): No | hit (intracellular MRSA; [22]): No | z-scoreMRSA+ mean (intracellular MRSA; [23]): 0.13 | z-scoreMRSA+ rep 1 (intracellular MRSA; [23]): -0.0173 | z-scoreMRSA+ rep 2 (intracellular MRSA; [23]): 0.48 | z-scoreMRSA+ rep 3 (intracellular MRSA; [23]): -0.09

COc1cc2nccc(Nc3cccc(Oc4ccccc4)c3)c2cc1OC [GW284543A]
cell count rep 1 (HeLa cells; [1]): 34308 | cell count rep 2 (HeLa cells; [2]): 33464 | cell count rep 3 (HeLa cells; [3]): 39414 | z-scoreHeLa mean (HeLa cells; [4]): 0.58 | z-scoreHeLa rep 1 (HeLa cells; [5]): 2.15 | z-scoreHeLa rep 2 (HeLa cells; [6]): -0.25 | z-scoreHeLa rep 3 (HeLa cells; [7]): -0.18 | cell death (HeLa cells; [9]): No | %GFP+ rep 1 (intracellular MRSA; [13]): 19.7% | %GFP+ rep 2 (intracellular MRSA; [13]): 21.7% | %GFP+ rep 3 (intracellular MRSA; [13]): 21.6% | z-scoreMRSA+ mean (intracellular MRSA; [14]): 0.70 | z-scoreMRSA+ rep 1 (intracellular MRSA; [14]): 0.58 | z-scoreMRSA+ rep 2 (intracellular MRSA; [14]): 0.96 | z-scoreMRSA+ rep 3 (intracellular MRSA; [14]): 0.55 | hit (intracellular MRSA; [15]): No | effect (intracellular MRSA; [16]): No

Cc1cc(N2CCC(NS(=O)(=O)c3ccc(F)cc3)CC2)nc(Nc2cccc(C#N)c2)n1 [GSK1653537A]
cell count rep 1 (HeLa cells; [1]): 5368 | cell count rep 2 (HeLa cells; [2]): 4678 | cell count rep 3 (HeLa cells; [3]): 5821 | cell death (HeLa cells; Yes/No call from z-scoreHeLa): No | z-scoreHeLa mean (HeLa cells; [18]): 0.46 | z-scoreHeLa rep 1 (HeLa cells; [19]): 0.73 | z-scoreHeLa rep 2 (HeLa cells; [20]): 0.29 | z-scoreHeLa rep 3 (HeLa cells; [21]): 0.37 | %GFP+ rep 1 (intracellular MRSA; [13]): 23.5% | %GFP+ rep 2 (intracellular MRSA; [13]): 20.6% | %GFP+ rep 3 (intracellular MRSA; [13]): 22.3% | effect (intracellular MRSA; Yes/No call from z-scoreMRSA+): No | hit (intracellular MRSA; [22]): No | z-scoreMRSA+ mean (intracellular MRSA; [23]): -0.29 | z-scoreMRSA+ rep 1 (intracellular MRSA; [23]): -0.41 | z-scoreMRSA+ rep 2 (intracellular MRSA; [23]): -0.49 | z-scoreMRSA+ rep 3 (intracellular MRSA; [23]): 0.03

O=c1cc(N2CCOCC2)nc2n(Cc3cccc4ccccc34)ccn12 [GSK2333389A]
cell count rep 1 (HeLa cells; [1]): 20901 | cell count rep 2 (HeLa cells; [2]): 33281 | cell count rep 3 (HeLa cells; [3]): 38349 | z-scoreHeLa mean (HeLa cells; [4]): -0.17 | z-scoreHeLa rep 1 (HeLa cells; [5]): 0.12 | z-scoreHeLa rep 2 (HeLa cells; [6]): -0.28 | z-scoreHeLa rep 3 (HeLa cells; [7]): -0.35 | cell death (HeLa cells; [9]): No | %GFP+ rep 1 (intracellular MRSA; [13]): 11.3% | %GFP+ rep 2 (intracellular MRSA; [13]): 12.1% | %GFP+ rep 3 (intracellular MRSA; [13]): 12.6% | z-scoreMRSA+ mean (intracellular MRSA; [14]): -2.07 | z-scoreMRSA+ rep 1 (intracellular MRSA; [14]): -2.08 | z-scoreMRSA+ rep 2 (intracellular MRSA; [14]): -1.93 | z-scoreMRSA+ rep 3 (intracellular MRSA; [14]): -2.19 | hit (intracellular MRSA; [15]): Yes | effect (intracellular MRSA; [16]): Yes

Reference: article PMC10999543, “Identification of kinase modulators as host-directed therapeutics against intracellular methicillin-resistant Staphylococcus aureus” (Frontiers in Cellular and Infection Microbiology, 2024)
